Laboratory results: patent US5262519A, “GRF analogs XI” (The Salk Institute for Biological Studies, priority 1991, dated 1993)
Square brackets hold non-standard residues; d marks the D form. Ends that are not written are not given here. Peptide text beside a SMILES is read from it. Nle = CCCC[C@H](N)C(=O)O

tested on: cells of rat pituitary glands; experiment: in vitro release of growth hormone from cultured rat pituitary cells, GH measured by radioimmunoassay; assay type: cell-based; conditions: potency for GH release relative to standard hGRF(1-40)-OH = 1.0; equimolar concentrations; 3 to 4 hours incubation; range in parentheses
Description: To determine the relative effectiveness of synthetic peptides to promote the release of growth hormone, in vitro assays are carried out using synthetic hpGRF(1-40)-OH as a standard in side-by-side comparison with equimolar concentrations of the representative analogs which have been synthesized. Cultures are used which include cells of rat pituitary glands removed some three to five days previously. Such cultures are considered optimal for the secretion of growth hormone and are used for the comparative testing, in the general manner described in Vale et al. Endocrinology, 91, 562-572 (1972) and as more particularly described in Vale et al. Endocrinology, 112, 1553-1555 (1983). Incubation with the substance to be tested is carried out for 3 to 4 hours, and aliquots of the culture medium are removed and processed to measure their contents in immunoreactive GH(ir GH) by a well-characterized radioimmunoassay.

Compound | In Vitro Potencies
CCCC[C@H](NC(=O)[C@@H](NC(=O)[C@H](C)NC(=O)[C@H](CCC(N)=O)NC(=O)[C@H](CC(C)C)NC(=O)[C@H](CC(C)C)NC(=O)[C@H](CCCCN)NC(=O)[C@H](CCCNC(=N)N)NC(=O)[C@H](C)NC(=O)[C@H](CO)NC(=O)[C@H](CC(C)C)NC(=O)[C@H](CCC(N)=O)NC(=O)CNC(=O)[C@H](CC(C)C)NC(=O)[C@@H](NC(=O)[C@H](CCCCN)NC(=O)[C@H](CCCNC(=N)N)NC(=O)[C@H](Cc1ccc(O)cc1)NC(=O)[C@H](CO)NC(=O)[C@H](CC(N)=O)NC(=O)[C@@H](NC(=O)[C@H](Cc1ccccc1)NC(=O)[C@@H](NC(=O)[C@H](C)NC(=O)[C@H](CC(=O)O)NC(=O)[C@H](C)NC(=O)[C@@H](N)Cc1ccc(O)cc1)[C@@H](C)CC)[C@@H](C)O)C(C)C)[C@@H](C)CC)C(=O)N[C@@H](CO)C(=O)N[C@@H](CCCNC(=N)N)C(N)=O [Example No. 4, [Ala^25, Nle^27]-hGRF(1-29)-NH2] (H-YADAIFTNSYRKVLGQLSARKLLQAI[Nle]SR-NH2) | 1.34(0.837-2.190)
CCCC[C@H](NC(=O)[C@@H](NC(=O)[C@H](CC(=O)O)NC(=O)[C@H](C)NC(=O)[C@H](CC(C)C)NC(=O)[C@H](CC(C)C)NC(=O)[C@H](CCCCN)NC(=O)[C@H](CCCNC(=N)N)NC(=O)[C@H](C)NC(=O)[C@H](CO)NC(=O)[C@H](CC(C)C)NC(=O)[C@H](CCC(N)=O)NC(=O)CNC(=O)[C@H](CC(C)C)NC(=O)[C@@H](NC(=O)[C@H](CCCCN)NC(=O)[C@H](CCCNC(=N)N)NC(=O)[C@H](Cc1ccc(O)cc1)NC(=O)[C@H](CO)NC(=O)[C@H](CC(N)=O)NC(=O)[C@@H](NC(=O)[C@H](Cc1ccccc1)NC(=O)[C@@H](NC(=O)[C@H](C)NC(=O)[C@H](CC(=O)O)NC(=O)[C@H](C)NC(=O)[C@@H](N)Cc1ccc(O)cc1)[C@@H](C)CC)[C@@H](C)O)C(C)C)[C@@H](C)CC)C(=O)N[C@@H](CO)C(=O)N[C@@H](CCCNC(=N)N)C(N)=O [Example No. 3, [Ala^24, Nle^27]-hGRF(1-29)-NH2] (H-YADAIFTNSYRKVLGQLSARKLLADI[Nle]SR-NH2) | 1.345(0.595-2.068)
CCCC[C@H](NC(=O)[C@@H](NC(=O)[C@H](CC(=O)O)NC(=O)[C@H](CCC(N)=O)NC(=O)[C@H](CC(C)C)NC(=O)[C@H](CC(C)C)NC(=O)[C@H](CCCCN)NC(=O)[C@H](CCCNC(=N)N)NC(=O)[C@H](C)NC(=O)[C@H](CO)NC(=O)[C@H](CC(C)C)NC(=O)[C@H](CCC(N)=O)NC(=O)CNC(=O)[C@H](CC(C)C)NC(=O)[C@@H](NC(=O)[C@H](CCCCN)NC(=O)[C@H](CCCNC(=N)N)NC(=O)[C@H](Cc1ccc(O)cc1)NC(=O)[C@H](CO)NC(=O)[C@H](C)NC(=O)[C@@H](NC(=O)[C@H](Cc1ccccc1)NC(=O)[C@@H](NC(=O)[C@H](C)NC(=O)[C@H](CC(=O)O)NC(=O)[C@H](C)NC(=O)[C@@H](N)Cc1ccc(O)cc1)[C@@H](C)CC)[C@@H](C)O)C(C)C)[C@@H](C)CC)C(=O)N[C@@H](CO)C(=O)N[C@@H](CCCNC(=N)N)C(N)=O [Example No. 1, [Ala^8, Nle^27]-hGRF(1-29)-NH2] (H-YADAIFTASYRKVLGQLSARKLLQDI[Nle]SR-NH2) | 2.143(1.178-4.065)
[Ala^16, Nle^27 ]-hGRF(1-29)-NH2 (YADAIFTNSYRKVLGALSARKLLQDI[Nle]SR-NH2; N-terminus assumed; SMILES CCCC[C@H](NC(=O)[C@@H](NC(=O)[C@H](CC(=O)O)NC(=O)[C@H](CCC(N)=O)NC(=O)[C@H](CC(C)C)NC(=O)[C@H](CC(C)C)NC(=O)[C@H](CCCCN)NC(=O)[C@H](CCCNC(=N)N)NC(=O)[C@H](C)NC(=O)[C@H](CO)NC(=O)[C@H](CC(C)C)NC(=O)[C@H](C)NC(=O)CNC(=O)[C@H](CC(C)C)NC(=O)[C@@H](NC(=O)[C@H](CCCCN)NC(=O)[C@H](CCCNC(=N)N)NC(=O)[C@H](Cc1ccc(O)cc1)NC(=O)[C@H](CO)NC(=O)[C@H](CC(N)=O)NC(=O)[C@@H](NC(=O)[C@H](Cc1ccccc1)NC(=O)[C@@H](NC(=O)[C@H](C)NC(=O)[C@H](CC(=O)O)NC(=O)[C@H](C)NC(=O)[C@@H](N)Cc1ccc(O)cc1)[C@@H](C)CC)[C@@H](C)O)C(C)C)[C@@H](C)CC)C(=O)N[C@@H](CO)C(=O)N[C@@H](CCCNC(=N)N)C(N)=O) [Example No. 2] | 1.502(0.727-2.859)
CC[C@H](C)[C@H](NC(=O)[C@H](C)NC(=O)[C@H](CC(=O)O)NC(=O)[C@H](C)NC(=O)[C@@H](N)Cc1ccc(O)cc1)C(=O)N[C@@H](Cc1ccccc1)C(=O)N[C@H](C(=O)N[C@@H](CC(N)=O)C(=O)N[C@@H](CO)C(=O)N[C@@H](Cc1ccc(O)cc1)C(=O)N[C@@H](CCCNC(=N)N)C(=O)N[C@@H](CCCCN)C(=O)N[C@H](C(=O)N[C@@H](CC(C)C)C(=O)NCC(=O)N[C@@H](CCC(N)=O)C(=O)N[C@@H](CC(C)C)C(=O)N[C@@H](CO)C(=O)N[C@@H](C)C(=O)N[C@@H](CCCNC(=N)N)C(=O)N[C@@H](CCCCN)C(=O)N[C@@H](CC(C)C)C(=O)N[C@@H](CC(C)C)C(=O)N[C@@H](CCC(N)=O)C(=O)N[C@@H](CC(=O)O)C(=O)N[C@H](C(=O)N[C@@H](CCSC)C(=O)N[C@@H](CO)C(=O)N[C@@H](CCCNC(=N)N)C(=O)N[C@@H](CCC(N)=O)C(=O)N[C@@H](CCC(N)=O)C(=O)NCC(=O)N[C@@H](CCC(=O)O)C(=O)N[C@@H](CO)C(=O)N[C@@H](CC(N)=O)C(=O)N[C@@H](CCC(N)=O)C(=O)N[C@@H](CCC(=O)O)C(=O)N[C@@H](CCCNC(=N)N)C(=O)NCC(=O)N[C@@H](C)C(=O)O)[C@@H](C)CC)C(C)C)[C@@H](C)O [hGRF(1-40)-OH, reference compound] | 1.0
